Test results as given in ChEMBL document CHEMBL4229547, “Design, synthesis and biological mechanisms research on 1,2,3-triazole derivatives of Jiyuan Oridonin A” (Bioorg Med Chem, 2018).

Columns and labels:
Type in all cases: functional, cell-based
EC9706 = experiment: Antiproliferative activity against human EC9706 cells after 48 hrs by MTT assay; details: EC9706, 48 h
MGC-803 = experiment: Antiproliferative activity against human MGC803 cells after 48 hrs by MTT assay; details: MGC-803, 48 h
SMMC-7721 = experiment: Antiproliferative activity against human SMMC7721 cells after 48 hrs by MTT assay; details: SMMC-7721, 48 h
PC-3 = experiment: Antiproliferative activity against human PC3 cells after 48 hrs by MTT assay; details: PC-3, 48 h
ECa-109 cell line = experiment: Antiproliferative activity against human ECA109 cells after 48 hrs by MTT assay; details: ECa-109, 48 h
HGC-27 = experiment: Antiproliferative activity against human HGC27 cells after 48 hrs by MTT assay; details: HGC-27, 48 h
MCF7 = experiment: Antiproliferative activity against human MCF7 cells after 48 hrs by MTT assay; details: MCF7, 48 h

| IC50 (MGC-803) | IC50 (SMMC-7721) | IC50 (PC-3) | IC50 (MCF7) | Compound | IC50 (EC9706) | IC50 (ECa-109 cell line) | IC50 (HGC-27) |
| --- | --- | --- | --- | --- | --- | --- | --- |
| 33.1 µM | 54 µM | 27.6 µM | 74.2 µM | C=C1C(=O)[C@]23[C@H](O)[C@H]1CC[C@H]2[C@@]12CO[C@]3(O)[C@@H](O)[C@@H]1C(C)(C)CC[C@@H]2O [ORIDONIN] | 38.4 µM | 31.8 µM | 32 µM |
| 14.7 µM | 20.2 µM | 15 µM | 22.9 µM | C=C1C(=O)[C@]23[C@H](O)[C@H]1C[C@H](O)[C@H]2[C@]12CCCC(C)(C)[C@H]1C[C@H]3O[C@H]2O | 22.5 µM | 20.7 µM | – |
| – | 5.88 µM | – | 6.62 µM | C=C1C(=O)[C@]23[C@H](O)[C@H]1C[C@H](O)[C@H]2[C@]12CCCC(C)(C)[C@H]1C[C@H]3O[C@@H]2OCCc1cn(Cc2ccc(F)cc2)nn1 | 4.5 µM | 3.68 µM | – |
| 9.62 µM | 6.07 µM | 11.2 µM | 8.95 µM | C=C1C(=O)[C@]23[C@H](O)[C@H]1C[C@H](O)[C@H]2[C@]12CCCC(C)(C)[C@H]1C[C@H]3O[C@@H]2OCCn1cc(-c2ccccc2)nn1 | 5.32 µM | 4.26 µM | – |
| – | 9.03 µM | – | 8.79 µM | C=C1C(=O)[C@]23[C@H](O)[C@H]1C[C@H](O)[C@H]2[C@]12CCCC(C)(C)[C@H]1C[C@H]3O[C@@H]2OCCc1cn(Cc2cc(OC)c(OC)c(OC)c2)nn1 | 9.5 µM | 4.51 µM | – |
| 4.58 µM | 9.66 µM | 3.79 µM | 11 µM | C=C1C(=O)[C@]23[C@H](O)[C@H]1C[C@H](O)[C@H]2[C@]12CCCC(C)(C)[C@H]1C[C@H]3O[C@@H]2OCCn1cc(C2CC2)nn1 | 11.4 µM | 4.3 µM | – |
| 3.77 µM | 15.3 µM | 3.92 µM | 14.6 µM | C#CCO[C@H]1O[C@@H]2C[C@@H]3C(C)(C)CCC[C@]13[C@@H]1[C@@H](O)C[C@H]3C(=C)C(=O)[C@@]21[C@@H]3O | 7.87 µM | 10.8 µM | – |
| 3.89 µM | 5.68 µM | 4.9 µM | 7.86 µM | C=C1C(=O)[C@]23[C@H](O)[C@H]1C[C@H](O)[C@H]2[C@]12CCCC(C)(C)[C@H]1C[C@H]3O[C@@H]2OCCc1cn(Cc2ccc(C)cc2)nn1 | 6.1 µM | 2.12 µM | – |
| – | 5.79 µM | – | 9.45 µM | C=C1C(=O)[C@]23[C@H](O)[C@H]1C[C@H](O)[C@H]2[C@]12CCCC(C)(C)[C@H]1C[C@H]3O[C@@H]2OCCc1cn(Cc2ccccc2)nn1 | 7.54 µM | 3.51 µM | – |
| – | 11 µM | – | 13.4 µM | C=C1C(=O)[C@]23[C@H](O)[C@H]1C[C@H](O)[C@H]2[C@]12CCCC(C)(C)[C@H]1C[C@H]3O[C@@H]2OCCn1cc(CCCC)nn1 | 8.29 µM | 4.45 µM | – |
| 4.79 µM | 4.81 µM | 4.95 µM | 7.81 µM | C=C1C(=O)[C@]23[C@H](O)[C@H]1C[C@H](O)[C@H]2[C@]12CCCC(C)(C)[C@H]1C[C@H]3O[C@@H]2OCCc1cn(Cc2ccc(OC)cc2)nn1 | 4.67 µM | 2.57 µM | – |
| – | 3.8 µM | – | 6.45 µM | C=C1C(=O)[C@]23[C@H](O)[C@H]1C[C@H](O)[C@H]2[C@]12CCCC(C)(C)[C@H]1C[C@H]3O[C@@H]2OCCc1cn(Cc2ccc([N+](=O)[O-])cc2)nn1 | 7.78 µM | 4.13 µM | – |
| – | 3.76 µM | – | 6.85 µM | C=C1C(=O)[C@]23[C@H](O)[C@H]1C[C@H](O)[C@H]2[C@]12CCCC(C)(C)[C@H]1C[C@H]3O[C@@H]2OCCc1cn(Cc2ccc(Cl)c(Cl)c2)nn1 | 4.21 µM | 2.58 µM | – |
| 11.9 µM | 10 µM | 12.3 µM | 1.6 µM | C=C1C(=O)[C@]23[C@H](O)[C@H]1C[C@H](O)[C@H]2[C@]12CCCC(C)(C)[C@H]1C[C@H]3OC2OCCN=[N+]=[N-] (single isomer, unassigned) | 8.71 µM | 6.08 µM | – |
